Experimental data reported in ChEMBL document CHEMBL5579867, “Ligand-Based Pharmacophoric Design and Anti-inflammatory Evaluation of Triazole Linked Semisynthetic Labdane Conjugates” (ACS Med Chem Lett, 2024).
The source made the active and inactive calls. No cut-off for these calls is given here.

Key:
RAW264.7 [1] = experiment: Antiinflammatory activity in LPS-induced mouse RAW264.7 cells assessed as inhibition of IL-6 production at 20 uM pretreated for 1 hr followed by LPS stimulation and measured after 24 hrs by ELISA; assay type: functional, cell-based; conditions: time 25.0 hrs
RAW264.7 [2] = experiment: Antiinflammatory activity in LPS-induced mouse RAW264.7 cells assessed as inhibition of TNF-alpha production at 20 uM pretreated for 1 hr followed by LPS stimulation and measured after 24 hrs by ELISA; assay type: functional, cell-based; conditions: time 25.0 hrs
RAW264.7 [3] = experiment: Cytotoxicity against mouse RAW264.7 cells assessed as reduction in cell viability at 1 to 20 uM incubated for 24 hrs by MTT assay; assay type: toxicity, cell-based; conditions: raw264.7, 24 h, dose 1-20 µM
RAW264.7 [4] = experiment: Antiinflammatory activity in LPS-induced mouse RAW264.7 cells assessed as inhibition of NO production at 1 to 20 uM pretreated for 1 hr followed by LPS stimulation and measured after 23 hrs by Griess method; assay type: functional, cell-based; conditions: dose 1-20 µM, time 24.0 hrs
RAW264.7 [5] = experiment: Inhibition of LPS-induced NF-kappaB activation in mouse RAW264.7 cells assessed as inhibition of p65 phosphorylation at 20 uM pretreated for 1 hr followed by LPS stimulation and measured after 24 hrs by Western blot analysis; assay type: cell-based; conditions: time 25.0 hrs
RAW264.7 [6] = experiment: Antiinflammatory activity in LPS-induced mouse RAW264.7 cells assessed as inhibition of NO production pretreated for 1 hr followed by LPS stimulation and measured after 23 hrs by Griess method; assay type: functional, cell-based

| IC50 (RAW264.7 [6]) [µM] | SMILES | Activity (RAW264.7 [1]) | Activity (RAW264.7 [2]) | Activity (RAW264.7 [3]) | Activity (RAW264.7 [4]) | inhibition (RAW264.7 [5]) |
| --- | --- | --- | --- | --- | --- | --- |
| – | C=C1CC[C@H]2C(C)(C)CCC[C@]2(C)[C@H]1C/C=C(/C=O)CC=O | Active | Active | Non-Toxic | – | – |
| – | C=C1CC[C@H]2C(C)(C)CCC[C@]2(C)[C@H]1C/C=C(/C=O)CC(=O)OCc1cn(CCN2C(=O)C(=O)c3cc(I)ccc32)nn1 | Active | Active | Non-Toxic | inactive | – |
| – | C=C1CC[C@H]2C(C)(C)CCC[C@]2(C)[C@H]1C/C=C(/C=O)CC(=O)OCc1cn(CCN2C(=O)C(=O)c3cc(OC)ccc32)nn1 | Active | Active | Non-Toxic | – | – |
| – | C=C1CC[C@H]2C(C)(C)CCC[C@]2(C)[C@H]1C/C=C(/C=O)CC(=O)OCc1cn(CCCCN2C(=O)C(=O)c3ccccc32)nn1 | Active | Active | Non-Toxic | inactive | – |
| – | C=C1CC[C@H]2C(C)(C)CCC[C@]2(C)[C@H]1C/C=C(/C=O)CC(=O)OCc1cn(CCCN2C(=O)C(=O)c3cc(Cl)ccc32)nn1 | Active | Active | Non-Toxic | – | – |
| – | C=C1CC[C@H]2C(C)(C)CCC[C@]2(C)[C@H]1C/C=C(\CC(=O)O)C(=O)O | Active | Active | Non-Toxic | – | – |
| – | C=C1CC[C@H]2C(C)(C)CCC[C@]2(C)[C@H]1C/C=C(/C=O)CC(=O)OCc1cn(CCCCN2C(=O)C(=O)c3cc(OC)ccc32)nn1 | Active | Active | Non-Toxic | – | – |
| – | C=C1CC[C@H]2C(C)(C)CCC[C@]2(C)[C@H]1C/C=C(\CC(=O)OCc1cn(CCN2C(=O)C(=O)c3cc(Br)ccc32)nn1)C(=O)OCc1cn(CCN2C(=O)C(=O)c3cc(Br)ccc32)nn1 | Active | Active | Non-Toxic | – | – |
| – | C=C1CC[C@H]2C(C)(C)CCC[C@]2(C)[C@H]1C/C=C(\CC(=O)OCc1cn(CCN2C(=O)C(=O)c3cc(OC)ccc32)nn1)C(=O)OCc1cn(CCN2C(=O)C(=O)c3cc(OC)ccc32)nn1 | Active | Active | Non-Toxic | – | – |
| – | C=C1CC[C@H]2C(C)(C)CCC[C@]2(C)[C@H]1C/C=C(/C=O)CC(=O)OCc1cn(CCCCN2C(=O)C(=O)c3cc(OC(F)(F)F)ccc32)nn1 | Active | Active | Non-Toxic | – | – |
| – | C=C1CC[C@H]2C(C)(C)CCC[C@]2(C)[C@H]1C/C=C(/C=O)CC(=O)OCc1cn(CCN2C(=O)C(=O)c3cc(C)ccc32)nn1 | Active | Active | Non-Toxic | – | – |
| – | C=C1CC[C@H]2C(C)(C)CCC[C@]2(C)[C@H]1C/C=C(\CC(=O)OCc1cn(CCN2C(=O)C(=O)c3cc(Cl)ccc32)nn1)C(=O)OCc1cn(CCN2C(=O)C(=O)c3cc(Cl)ccc32)nn1 | Active | Active | Non-Toxic | – | – |
| – | C=C1CC[C@H]2C(C)(C)CCC[C@]2(C)[C@H]1C/C=C(\CC(=O)OCc1cn(CCN2C(=O)C(=O)c3cc(F)ccc32)nn1)C(=O)OCc1cn(CCN2C(=O)C(=O)c3cc(F)ccc32)nn1 | Active | Active | Non-Toxic | – | – |
| – | C=C1CC[C@H]2C(C)(C)CCC[C@]2(C)[C@H]1C/C=C(/C=O)CC(=O)OCc1cn(CCCN2C(=O)C(=O)c3cc(F)ccc32)nn1 | Active | Active | Non-Toxic | Active | – |
| – | C=C1CC[C@H]2C(C)(C)CCC[C@]2(C)[C@H]1C/C=C(/C=O)CC(=O)OCc1cn(CCN2C(=O)C(=O)c3cc(Cl)ccc32)nn1 | Active | Active | Non-Toxic | inactive | – |
| – | C=C1CC[C@H]2C(C)(C)CCC[C@]2(C)[C@H]1C/C=C(/C=O)CC(=O)OCc1cn(CCN2C(=O)C(=O)c3cc(Br)ccc32)nn1 | Active | Active | Non-Toxic | inactive | – |
| – | C=C1CC[C@H]2C(C)(C)CCC[C@]2(C)[C@H]1C/C=C(/C=O)CC(=O)OCc1cn(CCCN2C(=O)C(=O)c3cc(C)ccc32)nn1 | Active | Active | Non-Toxic | – | – |
| 7.31 | COc1ccc2c(c1)c(CC(=O)O)c(C)n2C(=O)c1ccc(Cl)cc1 [INDOMETHACIN] | – | – | – | – | Active |

| IC50 (RAW264.7 [6]) [µM] | SMILES | Activity (RAW264.7 [1]) | Activity (RAW264.7 [2]) | Activity (RAW264.7 [3]) | Activity (RAW264.7 [4]) | inhibition (RAW264.7 [5]) |
| --- | --- | --- | --- | --- | --- | --- |
| – | C=C1CC[C@H]2C(C)(C)CCC[C@]2(C)[C@H]1C/C=C(\CC(=O)OCc1cn(CCN2C(=O)C(=O)c3cc(C)ccc32)nn1)C(=O)OCc1cn(CCN2C(=O)C(=O)c3cc(C)ccc32)nn1 | Active | Active | Non-Toxic | – | – |
| – | C=C1CC[C@H]2C(C)(C)CCC[C@]2(C)[C@H]1C/C=C(/C=O)CC(=O)OCc1cn(CCCN2C(=O)C(=O)c3cc(OC(F)(F)F)ccc32)nn1 | Active | Active | Non-Toxic | – | – |
| – | C=C1CC[C@H]2C(C)(C)CCC[C@]2(C)[C@H]1C/C=C(\CC(=O)OCc1cn(CCCN2C(=O)C(=O)c3cc(OC)ccc32)nn1)C(=O)OCc1cn(CCCN2C(=O)C(=O)c3cc(OC)ccc32)nn1 | Active | Active | Non-Toxic | – | – |
| – | C=C1CC[C@H]2C(C)(C)CCC[C@]2(C)[C@H]1C/C=C(/C=O)CC(=O)OCc1cn(CCCN2C(=O)C(=O)c3cc(OC)ccc32)nn1 | Active | Active | Non-Toxic | – | – |
| – | C=C1CC[C@H]2C(C)(C)CCC[C@]2(C)[C@H]1C/C=C(/C=O)CC(=O)OCc1cn(CCCN2C(=O)C(=O)c3ccccc32)nn1 | Active | Active | Non-Toxic | inactive | – |
| – | C=C1CC[C@H]2C(C)(C)CCC[C@]2(C)[C@H]1C/C=C(/C=O)CC(=O)OCc1cn(CCCCN2C(=O)C(=O)c3cc(Br)ccc32)nn1 | Active | Active | Non-Toxic | – | – |
| – | C=C1CC[C@H]2C(C)(C)CCC[C@]2(C)[C@H]1C/C=C(/C=O)CC(=O)OCc1cn(CCN2C(=O)C(=O)c3cc(OC(F)(F)F)ccc32)nn1 | Active | Active | Non-Toxic | Active | – |
| – | C=C1CC[C@H]2C(C)(C)CCC[C@]2(C)[C@H]1C/C=C(\CC(=O)OCc1cn(CCN2C(=O)C(=O)c3cc(I)ccc32)nn1)C(=O)OCc1cn(CCN2C(=O)C(=O)c3cc(I)ccc32)nn1 | Active | Active | Non-Toxic | – | – |
| – | C=C1CC[C@H]2C(C)(C)CCC[C@]2(C)[C@H]1C/C=C(/C=O)CC(=O)OCc1cn(CCCCN2C(=O)C(=O)c3cc(C)ccc32)nn1 | Active | Active | Non-Toxic | Active | – |
| – | C=C1CC[C@H]2C(C)(C)CCC[C@]2(C)[C@H]1C/C=C(/C=O)CC(=O)OCc1cn(CCCN2C(=O)C(=O)c3cc(I)ccc32)nn1 | Active | Active | Non-Toxic | – | – |
| – | C=C1CC[C@H]2C(C)(C)CCC[C@]2(C)[C@H]1C/C=C(/C=O)CC(=O)OCc1cn(CCCN2C(=O)C(=O)c3cc(Br)ccc32)nn1 | Active | Active | Non-Toxic | – | – |
| – | C=C1CC[C@H]2C(C)(C)CCC[C@]2(C)[C@H]1C/C=C(/C=O)CC(=O)OCc1cn(CCCCN2C(=O)C(=O)c3cc(I)ccc32)nn1 | Active | Active | Non-Toxic | – | – |
| – | C=C1CC[C@H]2C(C)(C)CCC[C@]2(C)[C@H]1C/C=C(/C=O)CC(=O)OCc1cn(CCN2C(=O)C(=O)c3cc(F)ccc32)nn1 | Active | Active | Non-Toxic | inactive | – |
| – | C=C1CC[C@H]2C(C)(C)CCC[C@]2(C)[C@H]1C/C=C(/C=O)CC(=O)OCc1cn(CCCCN2C(=O)C(=O)c3cc(Cl)ccc32)nn1 | Active | Active | Non-Toxic | – | – |
| – | C=C1CC[C@H]2C(C)(C)CCC[C@]2(C)[C@H]1C/C=C(\CC(=O)OCc1cn(CCCN2C(=O)C(=O)c3cc(Cl)ccc32)nn1)C(=O)OCc1cn(CCCN2C(=O)C(=O)c3cc(Cl)ccc32)nn1 | Active | Active | Non-Toxic | – | – |
| – | C=C1CC[C@H]2C(C)(C)CCC[C@]2(C)[C@H]1C/C=C(\CC(=O)OCc1cn(CCN2C(=O)C(=O)c3ccccc32)nn1)C(=O)OCc1cn(CCN2C(=O)C(=O)c3ccccc32)nn1 | Active | Active | Non-Toxic | Active | – |
| – | C=C1CC[C@H]2C(C)(C)CCC[C@]2(C)[C@H]1C/C=C(/C=O)CC(=O)OCc1cn(CCCCN2C(=O)C(=O)c3cc(F)ccc32)nn1 | Active | Active | Non-Toxic | – | – |
